Reference: patent EP0397914A1 (priority 1989, dated 1990)
Values joined by “and” are separate entries in the source; they are usually repeats but may differ in a detail not shown here. Identical values can stand only once.

Tests used:
[1] = Acute toxicity (LD50) in mice; conditions: mouse, in vivo, ip; intraperitoneal injection, male ICR mice (6 weeks old), after one week; read-out: LD₅₀
Method: Epigallocatechin gallate was orally administered to male ICR mice (6 weeks old). LD₅₀ of them after one week was 2314 mg/kg. In another case, epigallocatechin gallate was administered to male ICR mice (6 weeks old) by intraperitoneal injection. LD₅₀ of them after one week was 150 mg/kg.

[2] = molecular target: M toxin of A type toxins produced by Clostridium botulinum (Clostridium botulinum, UniProt P0DPI0); conditions: in vivo, iv
[3] = molecular target: S toxin of A type toxins produced by Clostridium botulinum (Clostridium botulinum, UniProt P0DPI0); conditions: in vivo, iv

## O=C(O[C@@H]1Cc2c(O)cc(O)cc2O[C@@H]1c1cc(O)c(O)c(O)c1)c1cc(O)c(O)c(O)c1 [epigallocatechin gallate, (-) epigallocatechin gallate]
[1]
  LD50 at 168 h: 150 mg/kg

## O=c1c(O)cc([C@H]2Oc3cc(O)cc(O)c3C[C@H]2O)cc2c([C@H]3Oc4cc(O)cc(O)c4C[C@H]3O)cc(O)c(O)c12 [free theaflavin]
[2]
  Remaining toxic activity (%): 9.9% and 7.6%
[3]
  Remaining toxic activity (%): 4.4% and 6.1%
